According to PMC6182381, “Population Pharmacokinetics and Exposure-Response Relationships of Naldemedine” (Pharmaceutical Research, 2018):
Like-named read-outs stand apart in the source and are kept apart here.

Legend:
[1] = system: patients with chronic non-cancer pain and OIC; experiment: SBM responder, phase 2b study 1107 V9221 (observed and PK/Efficacy logistic model); format: in vivo, human; settings: for SBM responder, Observation / SBM responder, Prediction: 1107V9221 (Phase 2b); for SBM Non_Responder frequency / SBM Responder frequency: PK/efficacy population, 1107 V9221 (Phase 2b); for Predicted probability of SBM responder: Phase 2b model
Excerpt: (§1) Exposure-response analysis was used to evaluate the efficacy and safety data of the phase 2b and phase 3 studies ([2],[5]). The PK/Efficacy analysis included the subjects of the population PK analysis or in the placebo group, who also had efficacy data for the exposure-response analysis obtained from phase 2b and phase 3 studies (1107 V9221, 1314 V9231, and 1315 V9232). The PK/Safety analysis included the subjects of the population PK analysis or in the placebo group, who also had safety data for exposure-response analysis obtained from phase 2b and phase 3 studies (1107 V9221, 1314 V9231, and 1315 V9232).
(§2) The following efficacy variables were used to evaluate the exposure-response relationship. […] In the phase 3 studies (Study No. 1314 V9231 and 1315 V9232), an SBM responder was defined as having 9 positive response weeks or more out of the 12-weeks treatment period and 3 positive response weeks out of the last 4 weeks of the 12-weeks treatment period. A positive response week was defined as a week with both ≥3 SBMs and an increase of ≥1 SBM from the baseline. A subject with any insufficient response data was treated as a “non-responder”. The occurrence of treatment-emergent adverse events of gastrointestinal disorders as system organ class, which was the most frequently occurring type, was defined by the severity and assessed as safety variables.
(§3) No covariate was tested in the exposure-response analysis because no prognostic factors of the efficacy or safety were identified in the phase 2b and phase 3 studies ([2],[5]). Efficacy and safety data in Study No. 1314 V9231 and 1315 V9232 were combined because these studies were conducted as pivotal phase 3 studies using the same study design and were of the same treatment duration. The individual AUCss values for naldemedine were estimated by empirical Bayes estimation based on the population PK model. AUCss values of the subjects in the placebo group were treated as zero (0). For efficacy (responder or non-responder) and safety (occurrence of gastrointestinal disorders or not) variables, relationships to PK parameters were examined using the logistic model as shown in Eq. (3) with SAS (Version 9.2, SAS Institute).3 Probabilityefficacy or safety event=1/1+exp−a−b×PKparameter where a and b are the parameters to be estimated.

[2] = system: patients with chronic non-cancer pain and OIC; experiment: SBM responder, phase 3 studies 1314 V9231 and 1315 V9232 (observed and PK/Efficacy logistic model); format: in vivo, human; settings: for Predicted probability of SBM responder: Phase 3 model
Excerpt: as §1, §2, §3

[3] = system: patients with chronic non-cancer pain and OIC; experiment: Adverse events / gastrointestinal disorders, phase 2b study 1107 V9221 (observed and PK/Safety logistic model); format: in vivo, human; settings: for Gastrointestinal disorders, Mild / Gastrointestinal disorders, Moderate / Gastrointestinal disorders, Not_Reported / Gastrointestinal disorders, Severe: PK/safety population, 1107 V9221 (Phase 2b); for Predicted probability of gastrointestinal disorders: Phase 2b model; for Predicted probability of gastrointestinal disorders / Gastrointestinal disorders, Observation / Gastrointestinal disorders, Prediction: Moderate, Severe; for Gastrointestinal disorders, Observation / Gastrointestinal disorders, Prediction: Phase 2b
Excerpt: as §1, §2, §3

[4] = system: patients with chronic non-cancer pain and OIC; experiment: Adverse events / gastrointestinal disorders, phase 3 studies 1314 V9231 and 1315 V9232 (observed and PK/Safety logistic model); format: in vivo, human; settings: for Predicted probability of gastrointestinal disorders: Phase 3 model
Excerpt: as §1, §2, §3

[5] = set-up: method as in PMID 28466424, PMID 28960888; settings: cited from earlier work
[6] = system: patients with chronic non-cancer pain and OIC; set-up: method as in PMID 28371937; settings: Study 1107 V9221 (Phase 2b), cited from earlier work
[7] = system: patients with chronic non-cancer pain and OIC; set-up: method as in PMID 28576452; settings: cited from earlier work
[8] = 1314V9231 and 1315V9232 (Phase 3), 0.2 mg
[9] = PK/efficacy population, 1314 V9231 and 1315 V9232 (Phase 3), 0.2 mg
[10] = PK/safety population, 1314 V9231 and 1315 V9232 (Phase 3), 0.2 mg
[11] = Phase 3, Mild, Moderate, Severe, 0.2 mg
[12] = Phase 3, Moderate, Severe, 0.2 mg

Q: What does the source list for `CC(C)(NC(=O)C1=C(O)[C@@H]2Oc3c(O)ccc4c3[C@@]23CCN(CC2CC2)[C@H](C4)[C@]3(O)C1)c1nc(-c2ccccc2)no1` [naldemedine]?
A: predicted probability of SBM responders ([1]; 0.2 mg, phase 2b study 1107 V9221): 52.7%; SBM responder, Observation ([1]; 0.1 mg): 55.6; SBM responder, Prediction ([1]; 0.1 mg): 47.4; SBM responder, Observation ([1]; 0.2 mg): 66.7; SBM responder, Prediction ([1]; 0.2 mg): 52.7; SBM responder, Observation ([1]; 0.4 mg): 60.0; SBM responder, Prediction ([1]; 0.4 mg): 63.0; SBM Non_Responder frequency ([1]; 0.1 mg): 4 (44.4) Count (Percent); SBM Responder frequency ([1]; 0.1 mg): 5 (55.6) Count (Percent); SBM Non_Responder frequency ([1]; 0.2 mg): 3 (33.3) Count (Percent); SBM Responder frequency ([1]; 0.2 mg): 6 (66.7) Count (Percent); SBM Non_Responder frequency ([1]; 0.4 mg): 4 (40.0) Count (Percent); SBM Responder frequency ([1]; 0.4 mg): 6 (60.0) Count (Percent); Predicted probability of SBM responder ([1]; Dose: 0.1 mg): 0.474; Predicted probability of SBM responder ([1]; Dose: 0.2 mg): 0.527; Predicted probability of SBM responder ([1]; Dose: 0.4 mg): 0.630; predicted probability of SBM responders ([2]; 0.2 mg once daily, phase 2b and phase 3 studies): approximately 50%; predicted probability of SBM responders ([2]; 0.2 mg, phase 3 studies 1314 V9231 and 1315 V9232): 49.9%; SBM responder, Observation [2, 8]: 53.3; SBM responder, Prediction [2, 8]: 49.9; SBM Non_Responder frequency [2, 9]: 208 (46.7) Count (Percent); SBM Responder frequency [2, 9]: 237 (53.3) Count (Percent); Predicted probability of SBM responder ([2]; Dose: 0.1 mg): 0.433; Predicted probability of SBM responder ([2]; Dose: 0.2 mg): 0.499; Predicted probability of SBM responder ([2]; Dose: 0.4 mg): 0.630; Gastrointestinal disorders, Mild ([3]; 0.1 mg): 1 (11.1) Count (Row percent); Gastrointestinal disorders, Moderate ([3]; 0.1 mg): 1 (11.1) Count (Row percent); Gastrointestinal disorders, Not_Reported ([3]; 0.1 mg): 7 (77.8) Count (Row percent); Gastrointestinal disorders, Severe ([3]; 0.1 mg): 0 (0.0) Count (Row percent); Gastrointestinal disorders, Mild ([3]; 0.2 mg): 1 (11.1) Count (Row percent); Gastrointestinal disorders, Moderate ([3]; 0.2 mg): 3 (33.3) Count (Row percent); Gastrointestinal disorders, Not_Reported ([3]; 0.2 mg): 5 (55.6) Count (Row percent); Gastrointestinal disorders, Severe ([3]; 0.2 mg): 0 (0.0) Count (Row percent); Gastrointestinal disorders, Mild ([3]; 0.4 mg): 2 (20.0) Count (Row percent); Gastrointestinal disorders, Moderate ([3]; 0.4 mg): 1 (10.0) Count (Row percent); Gastrointestinal disorders, Not_Reported ([3]; 0.4 mg): 7 (70.0) Count (Row percent); Gastrointestinal disorders, Severe ([3]; 0.4 mg): 0 (0.0) Count (Row percent); Predicted probability of gastrointestinal disorders ([3]; Mild, Dose: 0.1 mg): 0.195; Predicted probability of gastrointestinal disorders ([3]; Mild, Dose: 0.2 mg): 0.254; Predicted probability of gastrointestinal disorders ([3]; Mild, Dose: 0.4 mg): 0.403; Predicted probability of gastrointestinal disorders ([3]; Dose: 0.1 mg): 0.078; Predicted probability of gastrointestinal disorders ([3]; Dose: 0.2 mg): 0.101; Predicted probability of gastrointestinal disorders ([3]; Dose: 0.4 mg): 0.165; Gastrointestinal disorders, Observation ([3]; Mild, 0.1 mg): 22.2; Gastrointestinal disorders, Prediction ([3]; Mild, 0.1 mg): 19.5; Gastrointestinal disorders, Observation ([3]; Mild, 0.2 mg): 44.4; Gastrointestinal disorders, Prediction ([3]; Mild, 0.2 mg): 25.4; Gastrointestinal disorders, Observation ([3]; Mild, 0.4 mg): 30.0; Gastrointestinal disorders, Prediction ([3]; Mild, 0.4 mg): 40.3; Gastrointestinal disorders, Observation ([3]; 0.1 mg): 11.1; Gastrointestinal disorders, Prediction ([3]; 0.1 mg): 7.8; Gastrointestinal disorders, Observation ([3]; 0.2 mg): 33.3; Gastrointestinal disorders, Prediction ([3]; 0.2 mg): 10.1; Gastrointestinal disorders, Observation ([3]; 0.4 mg): 10.0; Gastrointestinal disorders, Prediction ([3]; 0.4 mg): 16.5; predicted probability of severe gastrointestinal disorders ([4]; 0.2 mg and 0.4 mg, phase 3 study): less than 3%; predicted probability of severe gastrointestinal disorders ([4]; 0.2 mg once daily): less than 3%; predicted probability of mild to severe gastrointestinal disorders ([4]; 0.2 mg, phase 3): 19.3%; predicted probability of moderate to severe gastrointestinal disorders ([4]; 0.2 mg, phase 3): 8.3%; predicted probability of severe gastrointestinal disorders ([4]; 0.2 mg, phase 3): 1.8%; Gastrointestinal disorders, Mild [4, 10]: 52 (11.7) Count (Row percent); Gastrointestinal disorders, Moderate [4, 10]: 34 (7.6) Count (Row percent); Gastrointestinal disorders, Not_Reported [4, 10]: 351 (78.9) Count (Row percent); Gastrointestinal disorders, Severe [4, 10]: 8 (1.8) Count (Row percent); Gastrointestinal disorders, Observation [4, 11]: 21.1; Gastrointestinal disorders, Prediction [4, 11]: 19.3; Gastrointestinal disorders, Observation [4, 12]: 9.4; Gastrointestinal disorders, Prediction [4, 12]: 8.3; Gastrointestinal disorders, Observation ([4]; Phase 3, Severe, 0.2 mg): 1.8; Gastrointestinal disorders, Prediction ([4]; Phase 3, Severe, 0.2 mg): 1.8; Predicted probability of gastrointestinal disorders ([4]; Mild, Moderate, Severe, Dose: 0.1 mg): 0.172; Predicted probability of gastrointestinal disorders ([4]; Mild, Moderate, Severe, Dose: 0.2 mg): 0.193; Predicted probability of gastrointestinal disorders ([4]; Mild, Moderate, Severe, Dose: 0.4 mg): 0.242; Predicted probability of gastrointestinal disorders ([4]; Moderate, Severe, Dose: 0.1 mg): 0.071; Predicted probability of gastrointestinal disorders ([4]; Moderate, Severe, Dose: 0.2 mg): 0.083; Predicted probability of gastrointestinal disorders ([4]; Moderate, Severe, Dose: 0.4 mg): 0.113; Predicted probability of gastrointestinal disorders ([4]; Severe, Dose: 0.1 mg): 0.015; Predicted probability of gastrointestinal disorders ([4]; Severe, Dose: 0.2 mg): 0.018; Predicted probability of gastrointestinal disorders ([4]; Severe, Dose: 0.4 mg): 0.027; time dependence of PK ([5]; AUC Day 1 vs AUCss Day 10, multiple dose study): time-independent; dose proportionality of systemic exposure ([5]; dose range 0.1 mg to 100 mg): almost dose proportional; time to reach steady state ([5]; multiple dose study, 3 mg, 10 mg and 30 mg, trough Days 2 to 10): ≤ 2 days; proportion of SBM responders ([6]; 0.1 mg): 52.5%; proportion of SBM responders ([6]; 0.2 mg): 71.2%; proportion of SBM responders ([6]; 0.4 mg): 66.7%; proportion of responders ([7]; Study 1314 V9231 (Phase 3)): 47.6%; proportion of responders ([7]; Study 1315 V9232 (Phase 3)): 52.5%
